Biological target: T1, KCNQ 2/3 channels (Homo sapiens, UniProt O43525+O43526)
T1 construct: expressed in transfected cells; host or cells: HEK293
Experiment: KCNQ 2/3 channel activation, thallium flux FLIPR assay (BTC-AM dye)
Type: cell-based
Conditions: for Emax: HEK293, maximum response relative to the response of 10 μM retigabine (set at 100%), read-out: % MAX; for EC50: HEK293 cells stably expressing human KCNQ2 and KCNQ3 subunits, thallium-induced fluorescence, 4 min compound incubation
Description: The following example describes the assay that can be used to identify compounds that activate KCNQ 2/3 channels.
HEK293 cells stably expressing human KCNQ2 and KCNQ3 subunits were seeded in 96-well, black-walled, clear-bottomed, poly-D-lysine coated plates (BD Biosciences, Bedford, Mass.) at a density of 1×10^5 cells per well 24 hours before the assay. On the assay day, BTC-AM dye (Invitrogen, Carlsbad, Calif.) was loaded into the cells by replacing the cell culture medium with 55 μL/well of 3 μg/mL dye in DPBS. Dye loading was allowed to proceed for 2 hours at room temperature and then cells were washed twice with 50 μL/well of assay buffer (in mM: 10 HEPES pH 7.3, 5 glucose, 140 Na-gluconate, 2.5 K-gluconate, 3.6 Ca-gluconate, 2 MgSO4, 0.1 Ouabain) to remove unloaded dye. Cells were incubated in 50 μL of assay buffer before loading onto a FLIPR system (Molecular Devices, Sunnyvale, Calif.). Various concentrations of compounds to be assayed were added to the cells in 50 μL of assay buffer and incubated for 4 minutes. The fluorescence signal was initiated by adding 100 μL of assay buffer containing 6 mM TlNO3 and 10 mM K2SO4. Fluors were excited using the 488-nm line of an argon laser and emission was filtered using a 540±30 nm bandpass filter. Fluorescent signals were recorded for 3 minutes. Sums of the responses over basal responses were plotted versus concentrations of test compounds to obtain an EC50 value. The maximum response for each test compound was determined relative to the response produced by 10 μM retigabine. The maximum response of retigabine at 10 μM was set at 100%.

Row | Emax (HEK293 KCNQ2/KCNQ3 cells) | EC50 | % MAX (maximum response relative to the response of 10 μM retigabine (set at 100%), HEK293 KCNQ2/KCNQ3 cells) | SMILES
1 | 160% | 42.3 nM |  | CN(Cc1ccccc1)c1nn(NC(=O)CC2CC3CCC2C3)c(=O)c2ccccc12 (racemic) [Example 37, (±)-N-{4-[benzyl(methyl)amino]-1-oxophthalazin-2(1H)-yl}-2-[(exo)-bicyclo[2.2.1]hept-2-yl]acetamide]
2 | 135% | 7680 nM |  | O=C(CC1CCCC1)Nn1nc(N2CCOCC2)c2ccccc2c1=O [Example 137, 2-cyclopentyl-N-[4-(morpholin-4-yl)-1-oxophthalazin-2(1H)-yl]acetamide]
3 | 120% | 889 nM |  | Nc1ccc(Sc2nn(NC(=O)Cc3ccc(Cl)cc3)c(=O)c3ccccc23)cc1 [Example 105, N-{4-[(4-aminophenyl)sulfanyl]-1-oxophthalazin-2(1H)-yl}-2-(4-chlorophenyl)acetamide]
4 | 140% | 3130 nM |  | O=C(Cc1cc(F)cc(F)c1)Nn1nc(C2=CCOCC2)c2ccccc2c1=O [Example 7, 2-(3,5-difluorophenyl)-N-[4-(3,6-dihydro-2H-pyran-4-yl)-1-oxophthalazin-2(1H)-yl]acetamide]
5 | 17.3% |  |  | O=C(Cc1cccc(F)c1F)Nn1nc(N2CCOCC2)c2ccccc2c1=O [Example 175, 2-(2,3-difluorophenyl)-N-[4-(morpholin-4-yl)-1-oxophthalazin-2(1H)-yl]acetamide]
6 | 18% |  |  | O=C(Cc1cc(F)ccc1F)Nn1nc(N2CCOCC2)c2ccccc2c1=O [Example 176, 2-(2,5-difluorophenyl)-N-[4-(morpholin-4-yl)-1-oxophthalazin-2(1H)-yl]acetamide]
7 | 140% | 116 nM |  | Cc1ccsc1-c1nn(NC(=O)CC2CC3CCC2C3)c(=O)c2ccccc12 (racemic) [Example 16, (±)-2-[(exo)-bicyclo[2.2.1]hept-2-yl]-N-[4-(3-methylthiophen-2-yl)-1-oxophthalazin-2(1H)-yl]acetamide]
8 | 103% | 116 nM |  | Cc1ccc(S(=O)(=O)c2nn(NC(=O)Cc3ccc(Cl)cc3)c(=O)c3ccccc23)cc1 [Example 192, 2-(4-chlorophenyl)-N-{4-[(4-methylphenyl)sulfonyl]-1-oxophthalazin-2(1H)-yl}acetamide]
9 | 114% | 2900 nM |  | O=C(Cc1cccc(Br)c1)Nn1nc(N2CCOCC2)c2ccccc2c1=O [Example 154, 2-(3-bromophenyl)-N-[4-(morpholin-4-yl)-1-oxophthalazin-2(1H)-yl]acetamide]
10 | 135% | 31.1 nM |  | O=C(CC1CC2CCC1C2)Nn1nc(C(=O)c2ccccc2)c2ccccc2c1=O (racemic) [Example 40, (±)-N-(4-benzoyl-1-oxophthalazin-2(1H)-yl)-2-[(exo)-bicyclo[2.2.1]hept-2-yl]acetamide]
11 | 134% | 87.5 nM |  | O=C(Cc1cc(F)cc(F)c1)Nn1nc(N2CCCCC2)c2ccccc2c1=O [Example 22, 2-(3,5-difluorophenyl)-N-[1-oxo-4-(piperidin-1-yl)phthalazin-2(1H)-yl]acetamide]
12 | 112% | 2810 nM |  | O=C(Cc1cc(F)cc(F)c1)Nn1nc(-c2ccccn2)c2ccccc2c1=O [Example 18, 2-(3,5-difluorophenyl)-N-[1-oxo-4-(pyridin-2-yl)phthalazin-2(1H)-yl]acetamide]
13 | 15.6% |  |  | O=C(Cc1ccc2ccccc2c1)Nn1nc(N2CCOCC2)c2ccccc2c1=O [Example 166, N-[4-(morpholin-4-yl)-1-oxophthalazin-2(1H)-yl]-2-(naphthalen-2-yl)acetamide]

Continued, compound first:

Row | SMILES | Emax (HEK293 KCNQ2/KCNQ3 cells) | EC50 | % MAX (maximum response relative to the response of 10 μM retigabine (set at 100%), HEK293 KCNQ2/KCNQ3 cells)
14 | CCC1CN(c2nn(NC(=O)CC3CC4CCC3C4)c(=O)c3ccccc23)CCO1 (racemic) [Example 220, (±)-2-[(exo)-bicyclo[2.2.1]hept-2-yl]-N-[4-(2-ethylmorpholin-4-yl)-1-oxophthalazin-2(1H)-yl]acetamide] | 139% | 57.9 nM | 
15 | O=C(CC1CC2CCC1C2)Nn1nc(CNC(=O)OCc2ccccc2)c2ccccc2c1=O (racemic) [Example 96, (±)-benzyl[(3-{[(exo)-bicyclo[2.2.1]hept-2-ylacetyl]amino}-4-oxo-3,4-dihydrophthalazin-1-yl)methyl]carbamate] | 79.4% | 315 nM | 
16 | COc1ccccc1CC(=O)Nn1nc(N2CCOCC2)c2ccccc2c1=O [Example 145, 2-(2-methoxyphenyl)-N-[4-(morpholin-4-yl)-1-oxophthalazin-2(1H)-yl]acetamide] | 1.73% |  | 
17 | O=C(CC1CC2CCC1C2)Nn1nc(Sc2ccccc2)c2ccccc2c1=O (racemic) [Example 59, (±)-2-[(exo)-bicyclo[2.2.1]hept-2-yl]-N-[1-oxo-4-(phenylsulfanyl)phthalazin-2(1H)-yl]acetamide] | 192% | 14.6 nM | 
18 | CC(C)(C)OC(=O)NCc1nn(NC(=O)Cc2ccc(C(F)(F)F)cc2)c(=O)c2ccccc12 [Example 118, tert-butyl{[4-oxo-3-({[4-(trifluoromethyl)phenyl]acetyl}amino)-3,4-dihydrophthalazin-1-yl]methyl}carbamate] | 40.7% | 2850 nM | 
19 | CC(C)(C)CNC(=O)Cc1nn(NC(=O)Cc2ccc(Cl)cc2)c(=O)c2ccccc12 [Example 123, 2-(4-chlorophenyl)-N-[4-{2-[(2,2-dimethylpropyl)amino]-2-oxoethyl}-1-oxophthalazin-2(1H)-yl]acetamide] | 13% |  | 
20 | O=C(Cc1cc(F)cc(F)c1)Nn1nc(Sc2ccc(Br)cc2)c2ccccc2c1=O [Example 197, N-{4-[(4-bromophenyl)sulfanyl]-1-oxophthalazin-2(1H)-yl}-2-(3,5-difluorophenyl)acetamide] | 120% | 49 nM | 
21 | O=C(Cc1cccc(OC(F)(F)F)c1)Nn1nc(N2CCOCC2)c2ccccc2c1=O [Example 162, N-[4-(morpholin-4-yl)-1-oxophthalazin-2(1H)-yl]-2-[3-(trifluoromethoxy)phenyl]acetamide] | 87.4% | 1520 nM | 
22 | O=C(Cc1ccc(Cl)cc1)Nn1nc(-c2ccnc(C(F)(F)F)c2)c2ccccc2c1=O [Example 77, 2-(4-chlorophenyl)-N-{1-oxo-4-[2-(trifluoromethyl)pyridin-4-yl]phthalazin-2(1H)-yl}acetamide] | 74.9% | 458 nM | 
23 | O=C(Cc1cccc2ccccc12)Nn1nc(N2CCOCC2)c2ccccc2c1=O [Example 165, N-[4-(morpholin-4-yl)-1-oxophthalazin-2(1H)-yl]-2-(naphthalen-1-yl)acetamide] | 7.96% |  | 
24 | Cc1ccccc1CC(=O)Nn1nc(N2CCOCC2)c2ccccc2c1=O [Example 139, 2-(2-methylphenyl)-N-[4-(morpholin-4-yl)-1-oxophthalazin-2(1H)-yl]acetamide] | -1.4% |  | 
25 | O=C(CC1CCCO1)Nn1nc(-c2ccnc(Cl)c2)c2ccccc2c1=O (stereo not drawn) [Example 73, N-[4-(2-chloropyridin-4-yl)-1-oxophthalazin-2(1H)-yl]-2-(tetrahydrofuran-2-yl)acetamide] | 172% | 8070 nM | 
26 | CC(C)[C@H]1CC[C@H](C)C[C@@H]1OC(=O)NCc1nn(NC(=O)Cc2ccc(Cl)cc2)c(=O)c2ccccc12 [Example 186, (1S,2R,5S)-5-methyl-2-(propan-2-yl)cyclohexyl[(3-{[(4-chlorophenyl)acetyl]amino}-4-oxo-3,4-dihydrophthalazin-1-yl)methyl]carbamate] |  |  | 11.8%
27 | O=C(Cc1ccc(Cl)cc1)Nn1nc(Cc2ccc(Cl)nc2)c2ccccc2c1=O [Example 32, 2-(4-chlorophenyl)-N-{4-[(6-chloropyridin-3-yl)methyl]-1-oxophthalazin-2(1H)-yl}acetamide] | 46.2% | 148 nM | 
28 | CC1CN(c2nn(NC(=O)Cc3ccc(Cl)cc3)c(=O)c3ccccc23)CC(C)O1 (stereo not drawn) [Example 62, 2-(4-chlorophenyl)-N-[4-(2,6-dimethylmorpholin-4-yl)-1-oxophthalazin-2(1H)-yl]acetamide] | 85.8% | 369 nM | 
29 | O=C(CC12CC3CC(CC1C3)C2)Nn1nc(-c2ccc(C(F)(F)F)nc2)c2ccccc2c1=O [Example 211, 2-(hexahydro-2,5-methanopentalen-3a(1H)-yl)-N-{1-oxo-4-[6-(trifluoromethyl)pyridin-3-yl]phthalazin-2(1H)-yl}acetamide] | 137% | 201 nM | 
30 | CC(C)(C)OC(=O)Nc1ccc(S(=O)(=O)c2nn(NC(=O)Cc3ccc(Cl)cc3)c(=O)c3ccccc23)cc1 [Example 106, tert-butyl{4-[(3-{[(4-chlorophenyl)acetyl]amino}-4-oxo-3,4-dihydrophthalazin-1-yl)sulfonyl]phenyl}carbamate] | 46.2% | 2010 nM | 
31 | O=C(Cc1ccc(Br)cc1)Nn1nc(N2CCOCC2)c2ccccc2c1=O [Example 155, 2-(4-bromophenyl)-N-[4-(morpholin-4-yl)-1-oxophthalazin-2(1H)-yl]acetamide] | 110% | 2560 nM | 

From patent US8859549B2, “Potassium channel modulators” (AbbVie, Inc., priority 2011, dated 2014)
